Like-named read-outs stand apart in the source and are kept apart here.
Legend:
KIF18A = KIF18A (Homo sapiens (Human), UniProt Q8NI77); test: KIF18A ATPase activity under tubulin stimulation (ADP-Glo assay); format: biochemical; conditions: KIF18A 30 nM, ATP 150 μM, pig microtubules
HCC1954 cells = test: HCC1954 cell proliferation (Cell Titer-Glo, 6 days); format: cell-based; conditions: KIF18A-sensitive tumor cells
Procedure: (§1) The inhibitory effect on the KIF18A target by the compounds of the present disclosure was evaluated by testing the inhibitory effect on proliferation of HCC1954 and HCC1395 cells by the compounds of the present disclosure.
(§2) HCC1954 (ATCC, CRL-2388) and HCC1395 (ATCC, CRL-2324) cells were cultured separately in RPMI-1640 complete medium (Gibco, A1049101) containing 20% fetal bovine serum (Gibco, 10099141C), 100 U penicillin, and 100 μg/mL streptomycin (Gibco, 15140-122). The Promega kit Cell Titer-Glo (Promega: G7572) was used in this method for test. • 1. HCC1954 (KIF18A-sensitive tumor cells) and HCC1395 (KIF18A-insensitive tumor cells) were cultured separately in T75 cell culture flasks (Corning, 430641), and the medium was placed in a 37° C., 5% CO2 incubator. • 2. When the cell density reached 70% to 80% (about 2 to 3 times per week), cells are passaged with trypsin (0.25% EDTA). • 3. The cell culture flask was taken out and the cells were separated by adding 2 mL of trypsin (0.25% EDTA source) for 5 minutes. • 4. Digestion was stopped by adding 8 mL of RPM1-1640 medium and the cell suspension was transferred to a centrifuge tube and centrifuged at 1000 rpm for 5 minutes. • 5. The cells were resuspended with 5 mL of RPMI-1640 medium. Cell density was adjusted to 5×10^3/mL (HCC1954), and 2.5×10^4/mL (HCC1395), respectively. • 6. 40 μL of cell solution was added to the 384-well plate (Corning, 3765). • 7. The 384-well plate was centrifuged at 1000 rpm for 1 minute. • 8. The cells were cultured overnight in a 37° C., 5% CO2 incubator. • 9. The next day, 40 nL of compound solution was added to the 384-well plate using Echo650. The plate was then placed in a 37° C., 5% CO2 incubator for 6 days. • 10. After 6 days, 20 μL of Cell-Titer-Glo (Promega, G7572) reagent was added per well. • 11. Luminescence values were measured using the EnVision Xcite Multilabel Reader (PerkinElmer, 2105-0020).
(§3) The percentage of inhibition of cell proliferation by the test compound at each concentration was calculated by comparing with the values of the control group (0.1% DMSO). The IC50 values of the compounds were obtained by concentration-inhibition rate nonlinear regression analysis of the test compounds using GraphPad Prism 9.

OVCAR-3 cells = test: OVCAR-3 cell proliferation (Cell Titer-Glo, 10 days); format: cell-based, human
Procedure, shortened: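 IC50 was fitted by nonlinear regression of percent inhibition versus the 0.1% DMSO control. Luminescence was read with Cell Titer-Glo after 10 days of co-culture of logarithmic-phase cells (400/well) with compound at 0.12 nM–10 μM final, in medium with 20% fetal bovine serum and 0.01 mg/mL insulin.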

HCC1395 cells = test: HCC1395 cell proliferation (Cell Titer-Glo, 6 days); format: cell-based; conditions: KIF18A-insensitive tumor cells
Procedure: as §1, §2, §3

PK study in ICR mice = format: in vivo, mouse; conditions: both sexes, mouse, plasma, route and dose not given
Procedure: 6 ICR mice (male/female) were divided into two groups, administered orally and intravenously, respectively, with 3 mice/group. The mice were fasted for 10-14 hours prior to dosing with free access to water.
The test compound was weighed according to the administration dose, and prepared into a dose formulation at appropriate concentrations (for rats and mice, intravenous and oral administration at a volume of 5 mL/kg and 10 mL/kg, respectively), wherein the intravenous injection was a clear solution, and the oral preparation was a clear solution or a homogeneous suspension.
Animals were dosed by intravenous injection and oral gavage, and blood samples were collected at 0.033, 0.083, 0.25, 0.5, 1, 2, 4, 8, and 24 h after intravenous administration and 0.083, 0.25, 0.5, 1, 2, 4, 6, 8, and 24 h after oral administration. Whole blood was centrifuged at 6800 g for 6 min at 4° C. and the top plasma was stored in a −80° C. freezer for later analysis.
The DMSO stock solution of the test compound was diluted into a series of working solutions with a methanol or an acetonitrile solution, and added to a blank plasma matrix, and standard curves were generated and quality control samples were prepared. An appropriate volume of the plasma sample was taken and a suitable multiple of methanol or acetonitrile containing an internal standard was added for protein precipitation based on the response. After centrifugation of all samples at 18000 g for 10 min at 4° C., an appropriate amount of supernatant was taken for LC-MS/MS injection analysis.
Drug concentration-time curves in plasma were plotted according to test concentrations, and pharmacokinetic parameters were calculated using noncompartmental analysis by WinNonlin software, including: half-life (T½), area under the concentration-time curve from time zero to time t (AUCO-t), clearance (CL), volume of distribution at steady state (Vss) and bioavailability (F), with some of the test results shown in Table 4.

hERG channel = hERG channel (Homo sapiens (Human), UniProt Q12809); test: hERG manual patch clamp test; format: cell-based
Sequence of hERG channel (Q12809 whole entry, the tested form may be a part): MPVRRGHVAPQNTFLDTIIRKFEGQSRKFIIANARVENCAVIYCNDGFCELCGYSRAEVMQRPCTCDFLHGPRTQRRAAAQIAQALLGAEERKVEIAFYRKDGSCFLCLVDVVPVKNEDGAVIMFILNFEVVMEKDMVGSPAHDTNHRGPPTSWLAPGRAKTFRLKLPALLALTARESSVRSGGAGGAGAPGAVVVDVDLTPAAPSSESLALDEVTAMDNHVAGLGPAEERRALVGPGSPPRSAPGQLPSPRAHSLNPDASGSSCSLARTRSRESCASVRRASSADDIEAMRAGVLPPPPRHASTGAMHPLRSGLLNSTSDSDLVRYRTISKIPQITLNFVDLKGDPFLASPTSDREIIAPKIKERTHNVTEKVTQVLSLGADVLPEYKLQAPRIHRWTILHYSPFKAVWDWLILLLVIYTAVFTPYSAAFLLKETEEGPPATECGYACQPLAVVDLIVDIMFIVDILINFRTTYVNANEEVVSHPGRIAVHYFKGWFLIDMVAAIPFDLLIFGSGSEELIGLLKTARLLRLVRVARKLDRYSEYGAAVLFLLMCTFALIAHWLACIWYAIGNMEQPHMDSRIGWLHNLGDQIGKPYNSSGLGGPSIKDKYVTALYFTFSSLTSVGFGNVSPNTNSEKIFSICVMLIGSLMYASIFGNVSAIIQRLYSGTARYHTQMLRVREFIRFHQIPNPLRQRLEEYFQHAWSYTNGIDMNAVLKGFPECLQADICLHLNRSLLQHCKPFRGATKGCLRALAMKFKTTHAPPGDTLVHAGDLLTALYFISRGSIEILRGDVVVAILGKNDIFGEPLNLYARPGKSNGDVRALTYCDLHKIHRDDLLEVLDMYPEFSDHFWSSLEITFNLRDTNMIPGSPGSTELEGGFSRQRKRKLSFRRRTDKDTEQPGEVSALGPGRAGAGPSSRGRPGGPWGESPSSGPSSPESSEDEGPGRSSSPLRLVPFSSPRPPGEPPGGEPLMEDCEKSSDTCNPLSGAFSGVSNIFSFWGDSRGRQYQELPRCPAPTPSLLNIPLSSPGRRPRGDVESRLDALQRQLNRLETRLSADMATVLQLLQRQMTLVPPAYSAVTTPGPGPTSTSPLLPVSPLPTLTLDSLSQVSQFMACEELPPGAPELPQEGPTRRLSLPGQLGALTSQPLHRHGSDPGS
Procedure: The cells used in this test were the HEK293 cell line transfected with hERG cDNA and stably expressing the hERG channel (#60187, supplied by BPS, passages P3-P23 for experimental studies). The cells were cultured in a medium containing the following components: MEM medium containing 10% (v/v) inactivated fetal calf serum, 1 mM sodium pyruvate, 500 μg/ml geneticin, 0.1 mM non-essential amino acids, and 100 U/m1 penicillin/streptomycin. HEK293 hERG cells were grown in a culture dish containing the above-mentioned medium, cultured in a 37° C., 5% CO2 incubator, and passaged approximately three times per week, with the cell fusion rate between 40% and 80%. 24 to 48 hours prior to electrophysiological experiments, HEK293 hERG cells were transferred to 0.05 mg/ml PDL-pretreated slides, seeded at a density of 1×10^4 cells per well in a 48-well plate, and grown in the same medium and under the same culture conditions. The density of HEK293 hERG cells on each circular slide needs to reach the requirement that most cells are independent and individual. The extracellular fluid components used in the hERG assay were as follows (mM): 145 NaCl, 4 KCl, 2 CaCl2, 1 MgCl2, 10 glucose, and 10 HEPES (pH adjusted to 7.40 with NaOH). The intracellular fluid components were as follows (mM): 130 KCl, 2 MgCl2, 5 EGTA, 10 HEPES and 5 Na2ATP (pH adjusted to 7.25 with KOH). […] Prior to the experiment, the compound was first serially diluted with DMSO to prepare stock solutions at 10, 3, 1, 0.3, and 0.1 mM, which were then further diluted with extracellular fluid to achieve the final test concentrations (in μM). The final concentration of DMSO in compound solutions at various concentrations was between 0.1% and 0.3%. All compound solutions are routinely sonicated for 5 to 10 min and shaken sufficiently to ensure complete dissolution of the compound, and all test solutions are mixed well by rotation for at least 10 min.
Electrophysiological tests were performed using a manual patch clamp system (HEKA EPC-10 signal amplifier and digital conversion system, HEKA Electronics, Germany) for the recording of whole cell currents. The specific test method was described as follows: Circular slides with […] hERG cells growing on the surface were placed in an electrophysiological recording chamber under an inverted microscope. The recording chamber was continuously perfused with extracellular fluid (at approximately 1 mL/min). The conventional whole-cell patch-clamp technique was employed for current recordings throughout the experiment. If not specified, the experiments were carried out at normal room temperature (about 25° C.). The cells were clamped at −80 mV. The cell clamp voltage was depolarized to +30 mV to activate the hERG potassium channel, and then clamped to −50 mV after 5 seconds to eliminate inactivation and produce a tail current. The peak tail current value was used as a value for the magnitude of the hERG current. The potassium current of hERG recorded in the above steps was stabilized by continuous extracellular fluid perfusion in the recording chamber, and the drug to be tested was continuously perfused until the inhibitory effect of the drug on hERG currents had stabilized. The coincidence of the most recent three consecutive current recording traces was typically taken as the criteria for determining whether steady-state conditions were achieved.
Dose-response curves of the test compounds were plotted with % hERG inhibition rate as the y-axis and test compound concentration as the x-axis, to calculate the IC50 values.

Sequence of KIF18A (Q8NI77 whole entry): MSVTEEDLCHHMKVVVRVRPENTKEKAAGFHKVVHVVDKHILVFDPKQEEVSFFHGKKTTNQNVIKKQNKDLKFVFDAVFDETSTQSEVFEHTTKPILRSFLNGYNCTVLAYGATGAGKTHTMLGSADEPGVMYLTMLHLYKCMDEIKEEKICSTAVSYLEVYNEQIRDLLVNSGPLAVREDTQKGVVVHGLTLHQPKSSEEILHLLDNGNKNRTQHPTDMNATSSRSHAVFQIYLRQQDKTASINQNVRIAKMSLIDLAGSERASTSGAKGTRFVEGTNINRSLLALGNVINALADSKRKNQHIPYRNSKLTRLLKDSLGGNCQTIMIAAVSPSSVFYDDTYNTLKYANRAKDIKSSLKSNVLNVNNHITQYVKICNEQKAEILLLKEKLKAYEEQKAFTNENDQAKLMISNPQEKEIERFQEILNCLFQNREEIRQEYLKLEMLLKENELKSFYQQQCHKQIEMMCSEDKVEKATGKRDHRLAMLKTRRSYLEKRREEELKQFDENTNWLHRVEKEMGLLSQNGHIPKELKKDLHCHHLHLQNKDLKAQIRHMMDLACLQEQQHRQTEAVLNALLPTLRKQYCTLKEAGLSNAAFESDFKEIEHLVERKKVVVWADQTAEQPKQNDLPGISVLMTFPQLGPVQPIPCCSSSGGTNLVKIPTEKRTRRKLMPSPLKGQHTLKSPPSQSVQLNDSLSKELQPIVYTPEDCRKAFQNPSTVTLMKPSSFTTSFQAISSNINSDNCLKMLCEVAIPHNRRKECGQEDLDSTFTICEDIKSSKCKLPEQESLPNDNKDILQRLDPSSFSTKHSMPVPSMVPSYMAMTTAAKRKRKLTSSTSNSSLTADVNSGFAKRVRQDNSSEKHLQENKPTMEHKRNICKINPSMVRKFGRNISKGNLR
Sequence of KIF18A (P02550 whole entry partner): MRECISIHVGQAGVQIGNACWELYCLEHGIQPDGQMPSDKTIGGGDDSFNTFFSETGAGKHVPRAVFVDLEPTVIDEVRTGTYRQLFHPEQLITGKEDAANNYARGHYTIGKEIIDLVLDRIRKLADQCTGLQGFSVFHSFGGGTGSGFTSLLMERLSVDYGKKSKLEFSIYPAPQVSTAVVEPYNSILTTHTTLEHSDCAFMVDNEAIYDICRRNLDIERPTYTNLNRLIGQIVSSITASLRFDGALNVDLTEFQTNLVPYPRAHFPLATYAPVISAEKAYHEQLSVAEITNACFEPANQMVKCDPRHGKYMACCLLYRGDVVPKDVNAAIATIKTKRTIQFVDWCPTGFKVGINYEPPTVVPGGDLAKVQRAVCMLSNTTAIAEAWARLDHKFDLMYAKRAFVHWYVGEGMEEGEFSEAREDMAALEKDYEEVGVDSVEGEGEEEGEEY
Sequence of KIF18A (P02554 whole entry partner): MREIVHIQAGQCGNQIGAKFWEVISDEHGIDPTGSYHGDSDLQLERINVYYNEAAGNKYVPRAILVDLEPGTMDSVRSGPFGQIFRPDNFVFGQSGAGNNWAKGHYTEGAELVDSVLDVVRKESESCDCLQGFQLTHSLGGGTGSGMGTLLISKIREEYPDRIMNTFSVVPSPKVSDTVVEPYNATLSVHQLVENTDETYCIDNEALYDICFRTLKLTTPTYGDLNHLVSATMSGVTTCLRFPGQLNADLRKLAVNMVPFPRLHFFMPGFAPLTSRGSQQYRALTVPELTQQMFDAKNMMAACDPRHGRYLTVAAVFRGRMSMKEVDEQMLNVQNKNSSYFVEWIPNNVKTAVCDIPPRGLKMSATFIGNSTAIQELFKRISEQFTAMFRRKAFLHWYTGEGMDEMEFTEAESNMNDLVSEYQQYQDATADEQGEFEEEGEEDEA

SMILES | IC50 (KIF18A) [µM] | IC50 (HCC1954 cells; Homo sapiens, HCC1954, 144 h) [µM] | IC50 (OVCAR-3 cells; Homo sapiens, OVCAR-3, 240 h) [µM] | IC50 (HCC1395 cells; Homo sapiens, HCC1395, 144 h) [µM] | IC50 (HCC1954 cells) [µM] | IC50 (OVCAR-3 cells) [µM] | IC50 (HCC1395 cells) [µM] | AUC (PK study in ICR mice; read-out: AUC) [ng·h/mL] | Cmax (PK study in ICR mice; read-out: Cmax) [ng/mL] | IC50 (hERG channel) [µM]
COc1ccc(NC(=O)c2ccc(NS(=O)(=O)CCO)cc2N2CCC3(CC2)CC3)c2cc3n(c12)CCC(F)(F)C3 [Example 478, N-(8,8-difluoro-4-methoxy-6,7,8,9-tetrahydropyridino[1,2-a]indol-1-yl)-4-(2-hydroxyethylsulfonamido)-2-(6-azaspiro[2.5]octan-6-yl)benzamide] | – | – | ≤ 0.05 | – | – | – | – | 48500 | 6020 | 8
O=C(Nc1cccc2c1cc(Cl)n2CC1CC1)c1ccc(NS(=O)(=O)CCO)cc1N1CCC2(CC1)CC2 [Example 13, N-(2-chloro-1-(cyclopropylmethyl)-1H-indol-4-yl)-4-((2-hydroxyethyl)sulfonamide)-2-(6-azaspiro[2.5]octan-6-yl)benzamide] | 0.05 to 0.5 | – | – | – | 0.01 to 0.5 | 0.05 to 0.5 | > 5 | – | – | –
O=C(Nc1cccc2c1ncn2CC1CC1)c1ccc(NS(=O)(=O)CCO)cc1N1CCC2(CC1)CC2 [Example 16] | ≤ 0.05 | – | – | – | 0.01 to 0.5 | 0.05 to 0.5 | > 5 | – | – | –
Cc1cc(NC(=O)c2c(N)cc(NS(=O)(=O)CCO)cc2N2CCC3(CC2)CC3)nc(N2CCC(F)(F)CC2)n1 [Example 3, 2-amino-N-(2-(4,4-difluoropiperidin-1-yl)-6-methylpyrimidin-4-yl)-4-(2-hydroxyethylsulfonamido)-6-(6-azaspiro[2.5]octan-6-yl)benzamide] | 0.05 to 0.5 | ≤ 0.01 | ≤ 0.05 | > 5 | – | – | – | – | – | –

Continued, in another order:

IC50 (KIF18A) [µM] | IC50 (HCC1954 cells; Homo sapiens, HCC1954, 144 h) [µM] | IC50 (OVCAR-3 cells; Homo sapiens, OVCAR-3, 240 h) [µM] | IC50 (HCC1395 cells; Homo sapiens, HCC1395, 144 h) [µM] | IC50 (HCC1954 cells) [µM] | IC50 (OVCAR-3 cells) [µM] | IC50 (HCC1395 cells) [µM] | SMILES | AUC (PK study in ICR mice; read-out: AUC) [ng·h/mL] | Cmax (PK study in ICR mice; read-out: Cmax) [ng/mL] | IC50 (hERG channel) [µM]
≤ 0.05 | 0.01 to 0.5 | ≤ 0.05 | > 5 | – | – | – | O=C(Nc1cccc2c1nc1n2CCOC1)c1ccc(NS(=O)(=O)CCO)cc1N1CCC2(CC1)CC2 [Example 304, N-(3,4-dihydro-1H-benzo[4,5]imidazo[2,1-c][1,4]oxazin-9-yl)-4-((2-hydroxyethyl)sulfonamido)-2-(6-azaspiro[2.5]octan-6-yl)benzamide] | – | – | –
≤ 0.05 | – | – | – | 0.01 to 0.5 | ≤ 0.05 | > 5 | CC1OCCn2c1cc1c(NC(=O)c3ccc(NS(=O)(=O)CCO)cc3N3CCC4(CC3)CC4)cccc12 (stereo not shown) [Example 311, 4-((2-hydroxyethyl)sulfonamido)-N-(1-methyl-3,4-dihydro-1H-[1,4]oxazinyl[4,3-a]indol-9-yl)-2-(6-azaspiro[2.5]oct-6-yl)benzamide] | – | – | –
≤ 0.05 | 0.01 to 0.5 | 0.05 to 0.5 | > 5 | – | – | – | O=C(Nc1ccnc2c1cc1n2CCOC1)c1ccc(NS(=O)(=O)CCO)cc1N1CCC2(CC1)CC2 [Example 303, N-(8,9-dihydro-6H-pyrido[3′,2′:4,5]pyrrolo[2,1-c][1,4]oxazin-4-yl)-4-((2-hydroxyethyl)sulfonamido)-2-(6-azaspiro[2.5]octan-6-yl)benzamide] | – | – | –
≤ 0.05 | > 5 | 0.05 to 0.5 | > 5 | – | – | – | O=C(Nc1cccc2c1oc(=O)n2CC1CC1)c1ccc(NS(=O)(=O)CCO)cc1N1CCC2(CC1)CC2 [Example 18, N-(3-(cyclopropylmethyl)-2-oxo-2,3-dihydrobenzo[d]oxazol-7-yl)-4-((2-hydroxyethyl)sulfonamido)-2-(6-azaspiro[2.5]oct-6-yl)benzamide] | – | – | –
0.05 to 0.5 | 0.01 to 0.5 | ≤ 0.05 | > 5 | – | – | – | COC1c2cc3c(NC(=O)c4ccc(NS(=O)(=O)CCO)cc4N4CCC5(CC4)CC5)cccc3n2CCC1(F)F (stereo not shown) [Example 340, N-(8,8-difluoro-9-methoxy-6,7,8,9-tetrahydropyridino[1,2-a]indol-1-yl)-4-((2-hydroxyethyl)sulfonamido)-2-(6-azaspiro[2.5]oct-6-yl)benzamide] | – | – | –
≤ 0.05 | 0.01 to 0.5 | 0.05 to 0.5 | > 5 | – | – | – | O=C(Nc1ccc(F)c2c1cc1n2CCOC1)c1ccc(NS(=O)(=O)CCO)cc1N1CCC2(CC1)CC2 [Example 305, N-(6-fluoro-3,4-dihydro-1H-[1,4]oxazino[4,3-a]indol-9-yl)-4-((2-hydroxyethyl)sulfonamido)-2-(6-azaspiro[2.5]oct-6-yl)benzamide] | – | – | –

— patent publication US20260070887A1 (Shenzhen Zhongge Biological Technology Co., Ltd., priority 2022, published 2026)
